Experimental data: patent US20190152962A1, “CYCLOPROPYL DERIVATIVES AS ROR-GAMMA MODULATORS” (CADILA HEALTHCARE LIMITED, priority 2016, published 2019)

How the values were obtained:
[1] = tested on: secreted IL-17 in peripheral blood mononuclear cells (PBMCs); assay: Human IL-17 inhibition assay; type: cell-based; settings: PBMC, anti-CD3/anti-CD28, 72 h, read-out: IL17 IC50
Procedure: Peripheral blood mononuclear cells (PBMCs) were isolated from healthy volunteers and subjected to T cell polarization assay. Two million PBMCs were placed on anti-CD3 (Biolegend, US) coated 96-well plates and 1 μg/mL of anti-CD28 (Biolegend, US) was added along with RORγt inhibitors or the vehicle control and incubated at 37° C. and 5% CO2 for 72 h. At the end of incubation time, the supernatant was collected and analyzed for secreted IL-17 using sandwich enzyme immunoassay (Mabtech AB, Sweden). The results were analyzed using Graphpad Prism and the half-maximal inhibitory concentrations (IC50) of the test compounds were derived (Table 4).

full length human RORγt = biological target: T1, full length human RORγt (Homo sapiens, UniProt P51449); assay: 5×RORE based luciferase assay; type: cell-based; settings: COS-7 cells transfected with 5×RORE-Luc and hRORγt, 18-20 h treatment
T1 construct: full length human RORγt together in COS-7 cells; expressed in transfected cells; host or cells: COS-7
T1 sequence (P51449 1-497 isoform P51449-2): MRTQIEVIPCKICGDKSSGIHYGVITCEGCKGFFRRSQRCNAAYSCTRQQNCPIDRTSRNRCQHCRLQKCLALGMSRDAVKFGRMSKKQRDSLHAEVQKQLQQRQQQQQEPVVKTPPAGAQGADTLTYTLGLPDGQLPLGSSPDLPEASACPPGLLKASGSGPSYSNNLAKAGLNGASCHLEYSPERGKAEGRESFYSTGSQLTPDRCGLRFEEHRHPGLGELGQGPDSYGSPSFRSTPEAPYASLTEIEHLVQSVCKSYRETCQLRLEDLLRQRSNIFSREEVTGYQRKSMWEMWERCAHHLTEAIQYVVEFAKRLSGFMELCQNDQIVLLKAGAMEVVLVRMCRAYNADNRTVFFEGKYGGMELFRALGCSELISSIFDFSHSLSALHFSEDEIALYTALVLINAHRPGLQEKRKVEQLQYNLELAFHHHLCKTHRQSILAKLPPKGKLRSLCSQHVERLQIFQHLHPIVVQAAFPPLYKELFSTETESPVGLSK
Procedure: Human RORγt (hRORγt) inhibitors were screened in RORE (RORγt Response Element) based Luciferase assay by transient transfection of 5×RORE (5 tandem repeats of RORγt Response Element) and full length human RORγt together in COS-7 cells. COS-7 cells were maintained as monolayer in complete DMEM (High Glucose) medium in presence of 2 mM Glutamin and 1× Sodium Pyruvate. Day before transfection, 15000 cells were seeded in 96 well cell culture plate in 100 μl antibiotic free medium and incubated at 37° C. in 5% CO2 containing humidified chamber O/N. Prior to transfection, cells were fed with fresh complete growth medium and incubated until the addition of transfection complex. Transfection complex for the required numbers of wells were prepared from pGL2-promoter-5×RORE-Luc plasmid, pcDNA3.1 (+)-hRORγt expression plasmid, pβ-GAL plasmid (transfection control), and Lipofectamine 3000 (Invitrogen). 50 μl of transfection complex were added in 100 μl of complete medium to respective wells, mixed gently and plate was incubated for 5-6 h at 37° C. in 5% CO2 containing humidified chamber. After 5 h of transfection, content of the wells were aspirated and cells were treated with increasing concentration of RORγt inverse agonist in medium devoid of serum with a final DMSO concentration of 0.2% for 18-20 h at 37° C. in 5% CO2 containing humidified chamber. Next day, cells were lysed and the lysates were assayed for luciferase and β-GAL activity using Promega's luciferase assay system and an in-house made β-GAL assay buffer respectively. Luciferase signals were normalized with β-GAL and % activity was determined with respect to that of 10 nM control ligand.
IC50 of selected compounds were then determined by nonlinear regression analysis of % activity, plotted against compound concentration (Table 4).

| Structure (SMILES) | IC50 [1] [nM] | IC50 (full length human RORγt) [nM] |
| --- | --- | --- |
| CCS(=O)(=O)c1ccc(CC(=O)Nc2cc(Cl)c(C3(c4noc(-c5ccc(F)cc5)n4)CC3)c(Cl)c2)cc1 [Example 1, N-(3,5-dichloro-4-(1-(5-(4-fluorophenyl)-1,2,4-oxadiazol-3-yl)cyclopropyl)phenyl)-2-(4-(ethylsulfonyl)phenyl)acetamide] | 6.6 |  |
| CCS(=O)(=O)c1ccc(CC(=O)Nc2cc(Cl)c(C3(c4noc(-c5ccccc5)n4)CC3)c(Cl)c2)cc1 [Example 2, N-(3,5-dichloro-4-(1-(5-phenyl-1,2,4-oxadiazol-3-yl)cyclopropyl)phenyl)-2-(4-(ethylsulfonyl)phenyl)acetamide] | 25 | 7 |
| CCS(=O)(=O)c1ccc(CC(=O)Nc2cc(Cl)c(C3(c4noc(-c5ccc(C(F)(F)F)cc5)n4)CC3)c(Cl)c2)cc1 [Example 3, N-(3,5-dichloro-4-(1-(5-(4-(trifluoromethyl)phenyl)-1,2,4-oxadiazol-3-yl)cyclopropyl)phenyl)-2-(4-(ethylsulfonyl)phenyl)acetamide] | 38.3 | 8.5 |
| CCS(=O)(=O)c1ccc(CC(=O)Nc2cc(Cl)c(C3(c4noc(-c5ccc(C)cc5)n4)CC3)c(Cl)c2)cc1 [Example 4, N-(3,5-dichloro-4-(1-(5-(p-tolyl)-1,2,4-oxadiazol-3-yl)cyclopropyl)phenyl)-2-(4-(ethylsulfonyl)phenyl)acetamide] | 15 | 1.46 |
| CCS(=O)(=O)c1ccc(CC(=O)Nc2cc(Cl)c(C3(c4noc(-c5ccc(F)c(F)c5)n4)CC3)c(Cl)c2)cc1 [Example 5, N-(3,5-dichloro-4-(1-(5-(3,4-difluorophenyl)-1,2,4-oxadiazol-3-yl)cyclopropyl)phenyl)-2-(4-(ethylsulfonyl)phenyl)acetamide] | 17 | 5.6 |
| CCS(=O)(=O)c1ccc(CC(=O)Nc2cc(Cl)c(C3(c4noc(-c5cccc(F)c5)n4)CC3)c(Cl)c2)cc1 [Example 6, N-(3,5-dichloro-4-(1-(5-(3-fluorophenyl)-1,2,4-oxadiazol-3-yl)cyclopropyl)phenyl)-2-(4-(ethylsulfonyl)phenyl)acetamide] | 35 | 3.4 |
| CCS(=O)(=O)c1ccc(CC(=O)Nc2cc(Cl)c(C3(c4noc(-c5ccc(F)cc5F)n4)CC3)c(Cl)c2)cc1 [Example 7, N-(3,5-dichloro-4-(1-(5-(2,4-difluorophenyl)-1,2,4-oxadiazol-3-yl)cyclopropyl)phenyl)-2-(4-(ethylsulfonyl)phenyl)acetamide] | 10.4 | 8.7 |
| CCS(=O)(=O)c1ccc(CC(=O)Nc2cc(Cl)c(C3(c4noc(-c5c(F)cc(F)cc5F)n4)CC3)c(Cl)c2)cc1 [Example 8, N-(3,5-dichloro-4-(1-(5-(2,4,6-trifluorophenyl)-1,2,4-oxadiazol-3-yl)cyclopropyl)phenyl)-2-(4-(ethylsulfonyl)phenyl)acetamide] | 2.7 | 11 |
| CCS(=O)(=O)c1ccc(CC(=O)Nc2cc(Cl)c(C3(c4noc(-c5ccc(F)cc5Cl)n4)CC3)c(Cl)c2)cc1 [Example 9, N-(3,5-dichloro-4-(1-(5-(2-chloro-4-fluorophenyl)-1,2,4-oxadiazol-3-yl)cyclopropyl)phenyl)-2-(4-(ethylsulfonyl)phenyl)acetamide] | 9.2 | 8.9 |
| CCS(=O)(=O)c1ccc(CC(=O)Nc2cc(Cl)c(C3(c4noc(-c5ccc(F)c(Cl)c5)n4)CC3)c(Cl)c2)cc1 [Example 10, N-(3,5-dichloro-4-(1-(5-(3-chloro-4-fluorophenyl)-1,2,4-oxadiazol-3-yl)cyclopropyl)phenyl)-2-(4-(ethylsulfonyl)phenyl)acetamide] | 9.4 | 6.8 |
| CCS(=O)(=O)c1ccc(CC(=O)Nc2cc(Cl)c(C3(c4noc(-c5ccc(Cl)c(Cl)c5)n4)CC3)c(Cl)c2)cc1 [Example 11, N-(3,5-dichloro-4-(1-(5-(3,4-dichlorophenyl)-1,2,4-oxadiazol-3-yl)cyclopropyl)phenyl)-2-(4-(ethylsulfonyl)phenyl)acetamide] | 14.7 | 15.9 |
| CCS(=O)(=O)c1ccc(CC(=O)Nc2cc(Cl)c(C3(c4noc(-c5ccc(Cl)cc5Cl)n4)CC3)c(Cl)c2)cc1 [Example 12, N-(3,5-dichloro-4-(1-(5-(2,4-dichlorophenyl)-1,2,4-oxadiazol-3-yl)cyclopropyl)phenyl)-2-(4-(ethylsulfonyl)phenyl)acetamide] | 10.6 | 5.9 |
| CCS(=O)(=O)c1ccc(CC(=O)Nc2cc(Cl)c(C3(c4noc(-c5ccc(Cl)cc5)n4)CC3)c(Cl)c2)cc1 [Example 13, N-(3,5-dichloro-4-(1-(5-(4-chlorophenyl)-1,2,4-oxadiazol-3-yl)cyclopropyl)phenyl)-2-(4-(ethylsulfonyl)phenyl)acetamide] | 27.2 | 8.9 |
| CCS(=O)(=O)c1ccc(CC(=O)Nc2cc(Cl)c(C3(c4noc(-c5ccc(C#N)cc5)n4)CC3)c(Cl)c2)cc1 [Example 14, N-(3,5-dichloro-4-(1-(5-(4-cyanophenyl)-1,2,4-oxadiazol-3-yl)cyclopropyl)phenyl)-2-(4-(ethylsulfonyl)phenyl)acetamide] | 9.5 | 1.3 |
| CCS(=O)(=O)c1ccc(CC(=O)Nc2cc(Cl)c(C3(c4noc(-c5ccc(OC)cc5F)n4)CC3)c(Cl)c2)cc1 [Example 15, N-(3,5-dichloro-4-(1-(5-(2-fluoro-4-methoxyphenyl)-1,2,4-oxadiazol-3-yl)cyclopropyl)phenyl)-2-(4-(ethylsulfonyl)phenyl)acetamide] | 27 | 5.7 |
| CCS(=O)(=O)c1ccc(CC(=O)Nc2cc(Cl)c(C3(c4noc(-c5cccs5)n4)CC3)c(Cl)c2)cc1 [Example 16, N-(3,5-dichloro-4-(1-(5-(thiophen-2-yl)-1,2,4-oxadiazol-3-yl)cyclopropyl)phenyl)-2-(4-(ethylsulfonyl)phenyl)acetamide] | 42 | 0.9 |
| CCS(=O)(=O)c1ccc(CC(=O)Nc2cc(Cl)c(C3(c4noc(-c5ccc(Cl)s5)n4)CC3)c(Cl)c2)cc1 [Example 17, N-(3,5-dichloro-4-(1-(5-(5-chlorothiophen-2-yl)-1,2,4-oxadiazol-3-yl)cyclopropyl)phenyl)-2-(4-(ethylsulfonyl)phenyl)acetamide] | 6 | 1.9 |
| CCS(=O)(=O)c1ccc(CC(=O)Nc2cc(Cl)c(C3(c4noc(-c5ccc(C)s5)n4)CC3)c(Cl)c2)cc1 [Example 18, N-(3,5-dichloro-4-(1-(5-(5-methylthiophen-2-yl)-1,2,4-oxadiazol-3-yl)cyclopropyl)phenyl)-2-(4-(ethylsulfonyl)phenyl)acetamide] | 23.7 | 3.9 |
| CCS(=O)(=O)c1ccc(CC(=O)Nc2cc(Cl)c(C3(c4noc(-c5cccnc5)n4)CC3)c(Cl)c2)cc1 [Example 19, N-(3,5-dichloro-4-(1-(5-(pyridin-3-yl)-1,2,4-oxadiazol-3-yl)cyclopropyl)phenyl)-2-(4-(ethylsulfonyl)phenyl)acetamide] | 27 | 1.58 |
| CCS(=O)(=O)c1ccc(CC(=O)Nc2cc(Cl)c(C3(c4noc(-c5ccc(OC)nc5)n4)CC3)c(Cl)c2)cc1 [Example 20, N-(3,5-dichloro-4-(1-(5-(6-methoxypyridin-3-yl)-1,2,4-oxadiazol-3-yl)cyclopropyl)phenyl)-2-(4-(ethylsulfonyl)phenyl)acetamide] | 11.3 | 15.8 |
| CCS(=O)(=O)c1ccc(CC(=O)Nc2cc(Cl)c(C3(c4noc(C(C)C)n4)CC3)c(Cl)c2)cc1 [Example 23, N-(3,5-dichloro-4-(1-(5-isopropyl-1,2,4-oxadiazol-3-yl)cyclopropyl)phenyl)-2-(4-(ethylsulfonyl)phenyl)acetamide] | 21 | 1.4 |
